Assay results: patent publication US12419874B2, “GLP-1R agonist compound and use thereof” (Chongqing Pharmaceutical Research Institute Co., Ltd., priority 2024, dated 2025)

Biological target: GLP-1R (Homo sapiens, UniProt P43220)
Assay: GLP-1R agonistic activity by One-Lite luciferase assay in HEK293-GLP-1R-luc cells (Example 59)
Assay type: cell-based
Settings: 6 h incubation, read-out: cAMP EC50
Protocol: The agonistic activities of the compounds of the present disclosure on GLP-1R were evaluated by detecting the generation of cAMP.
• (1) Cell line: HEK293-GLP-1R-luc Stable Cell Line (Cobioer, CBP71117); • (2) Culture medium: DMEM+10% FBS (Gibco); • (3) Kit: One-Lite™ kit Luciferase Assay System (Vazyme). 2. Experimental Procedures • (1) HEK293-GLP1R cells were inoculated in a 96-well plate at a density of 30000 cells per well; • (2) 10× working solution of each compound was formulated; • (3) 10 μL of 10× working solution of each compound was added to corresponding well and incubated at 37° C. for 6 h; • (4) 100 μL of One-Lite Luciferase Assay Substrate formulated using One-Lite Luciferase Assay Buffer was added to each well; • (5) The plate was incubated at room temperature for 3 min; • (6) The plate was read by a multimode microplate reader to detect chemiluminescence. 3. Data Analysis • (1) % Activity was calculated by the following formula: % Activity=100−(Signalcmpd−SignalAve-PC)/(SignalAve-VC−SignalAve-PC)×100 • (2) The dose-response curve was plotted to calculate EC50: Y=Bottom+(Top−Bottom)/(1+10^(Log EC50−X)*HillSlope)) • X: log of agonist concentration; Y: Activity. 4. Experimental Results

Sequence of GLP-1R (P43220 24-463): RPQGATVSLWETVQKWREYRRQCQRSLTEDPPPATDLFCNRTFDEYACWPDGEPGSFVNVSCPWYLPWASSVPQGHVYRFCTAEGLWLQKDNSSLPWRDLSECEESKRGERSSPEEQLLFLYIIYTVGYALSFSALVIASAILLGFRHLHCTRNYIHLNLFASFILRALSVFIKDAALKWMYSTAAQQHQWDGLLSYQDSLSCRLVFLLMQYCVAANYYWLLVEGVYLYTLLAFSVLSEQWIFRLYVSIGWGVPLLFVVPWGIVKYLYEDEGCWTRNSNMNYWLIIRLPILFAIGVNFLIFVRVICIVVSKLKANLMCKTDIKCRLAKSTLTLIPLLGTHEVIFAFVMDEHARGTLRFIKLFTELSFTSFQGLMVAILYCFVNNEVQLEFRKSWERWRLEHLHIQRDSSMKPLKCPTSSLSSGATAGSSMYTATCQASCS

Structure (SMILES): Cc1cc(-n2nc3c(c2-n2ccn(-c4ccc5c(ccn5C)c4F)c2=O)[C@H](C)N(C(=O)c2cc4cc([C@H]5CCOC(C)(C)C5)ccc4n2[C@@]2(c4noc(=O)[nH]4)C[C@@H]2C)CC32CCCNC2)cc(C)c1F (single isomer, unassigned) [Compound 51-A]
- EC50: ≤ 20 nM

Structure (SMILES): Cc1cc(-n2nc3c(c2-n2ccn(-c4ccc5c(ccn5C)c4F)c2=O)[C@H](C)N(C(=O)c2cc4cc([C@H]5CCOC(C)(C)C5)ccc4n2[C@@]2(c4noc(=O)[nH]4)C[C@@H]2C)CC32CCCNC2)cc(C)c1F (single isomer, unassigned) [Compound 51-B]
- EC50: ≤ 20 nM

Structure (SMILES): Cc1cc(-n2nc3c(c2-n2ccn(-c4ccc5c(cnn5C)c4F)c2=O)[C@H](C)N(C(=O)c2cc4cc([C@H]5CCOC(C)(C)C5)ccc4n2[C@@]2(c4noc(=O)[nH]4)C[C@@H]2C)CC32CCCN(C)C2)cc(C)c1F (single isomer, unassigned) [Compound 53-A]
- EC50: ≤ 20 nM

Structure (SMILES): Cc1cc(-n2nc3c(c2-n2ccn(-c4ccc5c(cnn5C)c4F)c2=O)[C@H](C)N(C(=O)c2cc4cc(C5CCOC(C)(C)C5)ccn4c2C2(c4noc(=O)[nH]4)CC2)CC32CC2)cc(C)c1F (single isomer, unassigned) [Compound 185-A]
- EC50: > 300 nM

Structure (SMILES): Cc1cc(-n2nc3c(c2-n2ccn(-c4ccc5c(cnn5C)c4F)c2=O)[C@H](C)N(C(=O)c2cc4cc(C5CCOC(C)(C)C5)ccn4c2C2(c4noc(=O)[nH]4)CC2)CC32CC2)cc(C)c1F (single isomer, unassigned) [Compound 185-B]
- EC50: 20 to 100 nM

Structure (SMILES): C[C@H]1c2c(nn(-c3ccc(F)c(C4CC4)c3)c2-n2ccn(-c3ccc4c(cnn4C)c3F)c2=O)C2(CC2)CN1C(=O)c1cc2cc(C3CCOC(C)(C)C3)ccn2c1C1(c2noc(=O)[nH]2)CC1 (single isomer, unassigned) [Compound 186-A]
- EC50: > 300 nM

Structure (SMILES): C[C@H]1c2c(nn(-c3ccc(F)c(C4CC4)c3)c2-n2ccn(-c3ccc4c(cnn4C)c3F)c2=O)C2(CC2)CN1C(=O)c1cc2cc(C3CCOC(C)(C)C3)ccn2c1C1(c2noc(=O)[nH]2)CC1 (single isomer, unassigned) [Compound 186-B]
- EC50: 20 to 100 nM

Structure (SMILES): Cc1cc(-n2nc3c(c2-n2ccn(-c4ccc5c(cnn5C)c4F)c2=O)[C@H](C)N(C(=O)c2cc4cc([C@H]5CCOC(C)(C)C5)ccc4n2[C@@]2(c4noc(=O)[nH]4)C[C@@H]2C)CC32CNC2)cc(C)c1F [Compound 15]
- EC50: ≤ 20 nM

Structure (SMILES): Cc1cc(-n2nc3c(c2-n2ccn(-c4ccc5c(cnn5C)c4F)c2=O)[C@H](C)N(C(=O)c2cc4cc([C@H]5CCOC(C)(C)C5)ccc4n2[C@@]2(c4noc(=O)[nH]4)C[C@@H]2C)CC32COC2)cc(C)c1F [Compound 21]
- EC50: ≤ 20 nM

Structure (SMILES): Cc1cc(-n2nc3c(c2-n2ccn(-c4ccc5c(cnn5C)c4F)c2=O)[C@H](C)N(C(=O)c2cc4cc([C@H]5CCOC(C)(C)C5)ccc4n2[C@@]2(c4noc(=O)[nH]4)C[C@@H]2C)CC32CCC2)cc(C)c1F [Compound 23]
- EC50: ≤ 20 nM

Structure (SMILES): Cc1cc(-n2nc3c(c2-n2ccn(-c4ccc5c(cnn5C)c4F)c2=O)[C@H](C)N(C(=O)c2cc4cc([C@H]5CCOC(C)(C)C5)ccc4n2[C@@]2(c4noc(=O)[nH]4)C[C@@H]2C)CC32CCCC2)cc(C)c1F [Compound 25]
- EC50: ≤ 20 nM

Structure (SMILES): Cc1cc(-n2nc3c(c2-n2ccn(-c4ccc5c(cnn5C)c4F)c2=O)[C@H](C)N(C(=O)c2cc4cc([C@H]5CCOC(C)(C)C5)ccc4n2[C@@]2(c4noc(=O)[nH]4)C[C@@H]2C)CC32CCOC2)cc(C)c1F (stereo partly drawn) [Compound 29]
- EC50: ≤ 20 nM

Structure (SMILES): Cc1cc(-n2nc3c(c2-n2ccn(-c4ccc5c(cnn5C)c4F)c2=O)[C@H](C)N(C(=O)c2cc4cc([C@H]5CCOC(C)(C)C5)ccc4n2[C@@]2(c4noc(=O)[nH]4)C[C@@H]2C)CC32CCCN2)cc(C)c1F (stereo partly drawn) [Compound 31]
- EC50: ≤ 20 nM

Structure (SMILES): Cc1cc(-n2nc3c(c2-n2ccn(-c4ccc5c(cnn5C)c4F)c2=O)[C@H](C)N(C(=O)c2cc4cc([C@H]5CCOC(C)(C)C5)ccc4n2[C@@]2(c4noc(=O)[nH]4)C[C@@H]2C)CC32CCCCC2)cc(C)c1F [Compound 37]
- EC50: 20 to 100 nM

Structure (SMILES): Cc1cc(-n2nc3c(c2-n2ccn(-c4ccc5c(cnn5C)c4F)c2=O)[C@H](C)N(C(=O)c2cc4cc([C@H]5CCOC(C)(C)C5)ccc4n2[C@@]2(c4noc(=O)[nH]4)C[C@@H]2C)CC32CCCCO2)cc(C)c1F (stereo partly drawn) [Compound 39]
- EC50: ≤ 20 nM

Structure (SMILES): Cc1cc(-n2nc3c(c2-n2ccn(-c4ccc5c(cnn5C)c4F)c2=O)[C@H](C)N(C(=O)c2cc4cc([C@H]5CCOC(C)(C)C5)ccc4n2[C@@]2(c4noc(=O)[nH]4)C[C@@H]2C)CC32CCN(C=O)CC2)cc(C)c1F [Compound 64]
- EC50: ≤ 20 nM

Structure (SMILES): Cc1cc(-n2nc3c(c2-n2ccn(-c4ccc5c(cnn5C)c4F)c2=O)[C@H](C)N(C(=O)c2cc4cc([C@H]5CCOC(C)(C)C5)ccc4n2[C@@]2(c4noc(=O)[nH]4)C[C@@H]2C)CC32CCN(C)C2)cc(C)c1F (stereo partly drawn) [Compound 79]
- EC50: ≤ 20 nM

Structure (SMILES): Cc1cc(-n2nc3c(c2-n2ccn(-c4ccc5c(cnn5C)c4F)c2=O)[C@H](C)N(C(=O)c2cc4cc([C@H]5CCOC(C)(C)C5)ccc4n2[C@@]2(c4noc(=O)[nH]4)C[C@@H]2C)CC32CCN(C=O)C2)cc(C)c1F (stereo partly drawn) [Compound 83]
- EC50: ≤ 20 nM

Structure (SMILES): CC(=O)N1CCC2(CC1)CN(C(=O)c1cc3cc([C@H]4CCOC(C)(C)C4)ccc3n1[C@@]1(c3noc(=O)[nH]3)C[C@@H]1C)[C@@H](C)c1c2nn(-c2cc(C)c(F)c(C)c2)c1-n1ccn(-c2ccc3c(cnn3C)c2F)c1=O [Compound 91]
- EC50: ≤ 20 nM

Structure (SMILES): C[C@H]1C[C@]1(c1noc(=O)[nH]1)n1c(C(=O)N2C3CCCC2c2c(nn(-c4ccc(F)c(C5CC5)c4)c2-n2ccn(-c4ccc5c(cnn5C)c4F)c2=O)C3)cc2cc([C@H]3CCOC(C)(C)C3)ccc21 (stereo partly drawn) [Compound 151]
- EC50: ≤ 20 nM

Structure (SMILES): Cc1cc(-n2nc3c(c2-n2ccn(-c4ccc5c(cnn5C)c4F)c2=O)[C@H](C)N(C(=O)c2cc4cc([C@H]5CCOC(C)(C)C5)ccc4n2[C@@]2(c4noc(=O)[nH]4)C[C@@H]2C)CC32CCN(C(=O)C(F)(F)F)CC2)cc(C)c1F [Compound 155]
- EC50: ≤ 20 nM

Structure (SMILES): Cc1cc(-n2nc3c(c2-n2ccn(-c4ccc5c(cnn5C)c4F)c2=O)[C@H](C)N(C(=O)c2cc4cc([C@H]5CCOC(C)(C)C5)ccc4n2[C@@]2(c4noc(=O)[nH]4)C[C@@H]2C)CC32CCN(S(C)(=O)=O)CC2)cc(C)c1F [Compound 156]
- EC50: ≤ 20 nM

Structure (SMILES): Cc1cc(-n2nc3c(c2-n2ccn(-c4ccc5c(cnn5C)c4F)c2=O)[C@H](C)N(C(=O)c2cc4cc([C@H]5CCOC(C)(C)C5)ccc4n2[C@@]2(c4noc(=O)[nH]4)C[C@@H]2C)CC32CCN(C(=O)C3CC3)CC2)cc(C)c1F [Compound 157]
- EC50: ≤ 20 nM

Structure (SMILES): COCC(=O)N1CCC2(CC1)CN(C(=O)c1cc3cc([C@H]4CCOC(C)(C)C4)ccc3n1[C@@]1(c3noc(=O)[nH]3)C[C@@H]1C)[C@@H](C)c1c2nn(-c2cc(C)c(F)c(C)c2)c1-n1ccn(-c2ccc3c(cnn3C)c2F)c1=O [Compound 158]
- EC50: ≤ 20 nM

Structure (SMILES): COC(=O)N1CCC2(CC1)CN(C(=O)c1cc3cc([C@H]4CCOC(C)(C)C4)ccc3n1[C@@]1(c3noc(=O)[nH]3)C[C@@H]1C)[C@@H](C)c1c2nn(-c2cc(C)c(F)c(C)c2)c1-n1ccn(-c2ccc3c(cnn3C)c2F)c1=O [Compound 159]
- EC50: ≤ 20 nM

Structure (SMILES): Cc1cc(-n2nc3c(c2-n2ccn(-c4ccc5c(cnn5C)c4F)c2=O)[C@H](C)N(C(=O)c2cc4cc([C@H]5CCOC(C)(C)C5)ccc4n2[C@@]2(c4noc(=O)[nH]4)C[C@@H]2C)CC32CCN(C(=O)[C@H](C)N)CC2)cc(C)c1F [Compound 160]
- EC50: ≤ 20 nM

Structure (SMILES): Cc1cc(-n2nc3c(c2-n2ccn(-c4ccc5c(cnn5C)c4F)c2=O)[C@H](C)N(C(=O)c2cc4cc([C@H]5CCOC(C)(C)C5)ccc4n2[C@@]2(c4noc(=O)[nH]4)C[C@@H]2C)CC32CCN(C(=O)CN)CC2)cc(C)c1F [Compound 161]
- EC50: ≤ 20 nM

Structure (SMILES): Cc1cc(-n2nc3c(c2-n2ccn(-c4ccc5c(cnn5C)c4F)c2=O)[C@H](C)N(C(=O)c2cc4cc([C@H]5CCOC(C)(C)C5)ccc4n2[C@@]2(c4noc(=O)[nH]4)C[C@@H]2C)CC32CCN(C(N)=O)CC2)cc(C)c1F [Compound 162]
- EC50: ≤ 20 nM

Structure (SMILES): CNC(=O)N1CCC2(CC1)CN(C(=O)c1cc3cc([C@H]4CCOC(C)(C)C4)ccc3n1[C@@]1(c3noc(=O)[nH]3)C[C@@H]1C)[C@@H](C)c1c2nn(-c2cc(C)c(F)c(C)c2)c1-n1ccn(-c2ccc3c(cnn3C)c2F)c1=O [Compound 163]
- EC50: ≤ 20 nM

Structure (SMILES): Cc1cc(-n2nc3c(c2-n2ccn(-c4ccc5c(cnn5C)c4F)c2=O)[C@H](C)N(C(=O)c2cc4cc([C@H]5CCOC(C)(C)C5)ccc4n2[C@@]2(c4noc(=O)[nH]4)C[C@@H]2C)CC32CN(C)C2)cc(C)c1F [Compound 164]
- EC50: ≤ 20 nM

Structure (SMILES): Cc1cc(-n2nc3c(c2-n2ccn(-c4ccc5c(cnn5C)c4F)c2=O)[C@H](C)N(C(=O)c2cc4cc([C@H]5CCOC(C)(C)C5)ccc4n2[C@@]2(c4noc(=O)[nH]4)C[C@@H]2C)CC32CN(C=O)C2)cc(C)c1F [Compound 165]
- EC50: ≤ 20 nM

Structure (SMILES): CC(=O)N1CC2(C1)CN(C(=O)c1cc3cc([C@H]4CCOC(C)(C)C4)ccc3n1[C@@]1(c3noc(=O)[nH]3)C[C@@H]1C)[C@@H](C)c1c2nn(-c2cc(C)c(F)c(C)c2)c1-n1ccn(-c2ccc3c(cnn3C)c2F)c1=O [Compound 166]
- EC50: ≤ 20 nM

Structure (SMILES): Cc1cc(-n2nc3c(c2-n2ccn(-c4ccc5c(cnn5C)c4F)c2=O)[C@H](C)N(C(=O)c2cc4cc([C@H]5CCOC(C)(C)C5)ccc4n2[C@@]2(c4noc(=O)[nH]4)C[C@@H]2C)CC32CN(C(=O)C(F)(F)F)C2)cc(C)c1F [Compound 167]
- EC50: ≤ 20 nM
